Data set [1] deals with bed bugs. Nature of the data set: Example 2: bed bug mortality after exposure to solutions of minimum risk (25(b)) pesticides via artificial membrane feeding system. The class given is in vivo. Conditions: for efficacy against bed bugs: exposed to lower concentrations of the solutions; for level of efficacy against bed bugs relative to the other solutions: within 120 hours of exposure. How it is done:
To determine whether consumption of ingredients listed under section 25(b) of the Federal Insecticide, Fungicide, and Rodenticide Act kills bed bugs, several mixtures of salt, citric acid, potassium sorbate, sodium lauryl sulfate (SLS), castor oil, sesame oil, cinnamon oil, garlic oil, citronella oil, lemongrass oil, peppermint oil, cedar oil, clove oil, rosemary oil, thyme oil, geranium oil, geraniol, and flaxseed oil were made. Oil based solutions were dissolved into 2% sodium lauryl sulfate (“SLS”) and water mixtures. Remaining ingredients were dissolved in water. Concentrations of 1%, 5%, and 50% of each solution were made. Control solutions consisted of either human blood or water depending on the test solutions in each experiment. Groups of twenty bed bugs were offered each solution via the artificial membrane feeding system described above for 60 minutes. […] Post-exposure mortality was recorded at 24 hours and 120 hours after exposure to the active solution.

Data set [2] relates to bed bugs. Briefly: Example 3: feeding and mortality of bed bugs offered varying concentrations of sodium chloride in water. It is filed as in vivo. The source says:
To determine optimum concentrations of sodium chloride solutions (for both feeding and mortality), bed bugs were offered the following concentrations sodium chloride diluted in water on a weight percent basis: 0, 0.05, 0.25, 0.5%, 1%, 2%, 3%, 4%, 5%, 6%, 7%, 8%, 9%, 10%, 12%, 14%, 16%, 18%, 20%, 25%, 30%, 35%, 40%, 50%, 60%, 70%, 80%, 90%, and 100%.

The test system of data set [3] is bed bugs.
Procedure: For the following Examples an artificial membrane feeding station was prepared and used. […] The Parafilm™ was stretched to <5.0 mils thick. The liquid bait identified in the various Examples below was placed in the sealed container.
Each solution was offered to groups of 20 bed bugs via the artificial feeding stations described above. After approximately 60 minutes, the containers of 20 bed bugs were removed from the feeding station and the number that fed to completion was recorded. Post-exposure mortality was recorded at 4 hours, 24 hours and/or 48 hours after exposure to the active solution.
In data set [4] the test system is bed bugs. Briefly: Example 1: post-consumption mortality of bed bugs fed on solutions via artificial membrane feeding system. It is filed as in vivo. Conditions: solution of 0.05 grams boric acid and 4.95 milliliters phosphate buffer pH 7.4; within 24 hours. The source says: Boric acid is an insecticidal dust that causes death upon consumption by most insects with chewing mouthparts. Bed bugs have blood-feeding, piercing/sucking mouthparts that limit their ability to pick up and consume the insecticidal dust in its powder form. To determine whether consumption of boric acid kills bed bugs, several mixtures of boric acid and phosphate buffer, DUPONT™ ADVION™ fire ant bait including indoxacarb and phosphate buffer, and just phosphate buffer solutions were made. […] Multiple groups of ten bed bugs fed on the solutions via artificial membrane feeding systems as described above, and post-consumption mortality was recorded. […]

Molecules are shown by their SMILES.

`C/C=C/C=C/C(=O)[O-].[K+]` [potassium sorbate] yielded an efficacy in the data set on bed bugs [1] (within 120 hours, bed bugs that consumed the solutions, concentrations of 1%, 5%, 50% made) of 0%.

On to `CCCCCCCCCCCCOS(=O)(=O)[O-].[Na+]` [SLS, sodium lauryl sulfate], for which, in the data set with bed bugs [1], the “efficacy against bed bugs” value is “some efficacy” and the “level of efficacy against bed bugs relative to the other solutions” value is “highest observed levels of efficacy”.

Turning to `O=C(O)CC(O)(CC(=O)O)C(=O)O` [citric acid], in the data set with bed bugs [1], the “efficacy against bed bugs” value was “some efficacy” and the “level of efficacy against bed bugs relative to the other solutions” value is reported as “highest observed levels of efficacy”.

With `CC(C)=CCC/C(C)=C/CO` [geraniol oil, geraniol], the “efficacy against bed bugs” value with bed bugs [1] is reported as “some efficacy”.

With `[Cl-].[Na+]` [sodium chloride], in the data set with bed bugs [1], the “efficacy against bed bugs” value was “some efficacy” and the “level of efficacy against bed bugs relative to the other solutions” value is on record as “highest observed levels of efficacy”. For the same compound, in the data set with bed bugs [2] (all sodium chloride solutions up to 70% wt. sodium chloride), the mortality entry is recorded as “some level of mortality”. Besides, in the data set with bed bugs [2] (just from bed bugs tasting the solutions), the “sodium chloride concentration up to which death was recorded” value is on record as “up to 70 weight percent”. Also, the “sodium chloride concentration up to which bed bugs feed to completion or engorge” value in the data set on bed bugs [2] (sodium chloride in water, offered about 60 minutes) is on record as “up to 5%”. The “highest levels of mortality” value in the data set on bed bugs [2] (solutions containing 6-12% wt. sodium chloride, within 48 hours) is reported as “up to 70%”. The “sodium chloride concentration up to which bed bugs fully engorge themselves” value with bed bugs [2] (solutions of sodium chloride and water) is “up to 5 weight percent”.

With `OB(O)O` [boric acid], the increase in mortality in the data set with bed bugs [3] (5% boric acid added to the sodium chloride solution) is 25-60%. Further, the “effect on mortality compared to sodium chloride base solutions without boric acid” value in the data set with bed bugs [3] (addition of 5% boric acid) is “significantly enhanced mortality”. Further, the “efficacy on bed bugs that consumed the solution” value in the data set with bed bugs [4] came to 100%.

Source of the values: US9295247B2, “Method of using insect bait station” (ECOLAB USA INC., priority 2008, dated 2016).
